According to patent US5688913A, “CS-1 peptidomimetics, compositions and methods of using the same” (Cytel Corporation, priority 1995, dated 1997):
Numbered stars: 1 amine (or outer) side, 2 acyl side, 3 side chain; on linkers, the order of the positions; unused ones are H or OH. Square brackets hold non-standard residues; d marks the D form. Peptide text beside a SMILES is read from it. * marks the point of attachment. code Z = Europium label (diethylenetriaminepentaacetatoeuropium); Acetyl(3-pyridyl) = O=C(Cc1cccnc1)*; hPhe = N[C@@H](CCc1ccccc1)C(=O)O; Cha = N[C@@H](CC1CCCCC1)C(=O)O; Isonicotinoyl = O=C(c1ccncc1)*; Nicotinoyl = O=C(c1cccnc1)*; Pyrrolidide = C1CCN(*)C1; PhAc = O=C(Cc1ccccc1)*; X14 = O=C(c1cc[nH]n1)*; CO = O=C([*:1])[*:2]; NHPh = c1ccc(N*)cc1

Molecular target: VLA-4 (Homo sapiens, UniProt P05556+P13612)
Assay: cell-based
Type: cell-based
Design: host or cells: Jurkat (human T lymphoblastic line)
Conditions: not given
Experimental: Binding inhibition is measured here as a concentration of peptide that inhibits one-half the binding between a standard number of Jurkat cells and a standard amount of CS-1 peptide bound to the surface of a microtiter plate well. Those concentrations are conveniently expressed as IC50 values, smaller numbers indicating a lower concentration required to inhibit 50 percent binding and therefore greater potency. Further specifics of this assay are provided hereinafter.
Jurkat cells (ATCC TIB 152), a human T lymphoblastic line, labeled with ^51 chromium were used to assay in vitro binding inhibition provided by various peptides discussed herein.
The plates were prepared as follows: The 25-mer CS-1 peptide (SEQ ID NO:1) dissolved at 0.5-1 μg/ml in a buffer of 0.1M NaHCO3 at pH 9.5 that also contained 10 μg/ml of bovine serum albumin (BSA) or a conjugate of the CS-1 peptide linked to ovalbumin (CS-1-OVA) dissolved at 1-2.5 μg/ml in the same buffer was used as the substrate. Each well of the microtiter plates was coated with 50 μl of substrate or buffer alone for controls. The wells were permitted to dry out completely and were then rinsed twice with PBS at pH 7.4. Non-specific binding sites of each well were then blocked using 200 μl per well of RPMI/1 percent BSA for two hours at room temperature. Both solid phase-affixed substrates provided similar results.
Jurkat cells (3-5×10^6 cells) were placed into a 15 ml Falcon™ round-bottom tube with a cap. The tube was centrifuged, and the extra medium was then removed.
Two hundred microliters of a ^51 Cr labeling solution were added to the centrifuged cells and maintained in contact with the cells for 90-120 minutes in a warm room. This procedure typically provides about 50,000-100,000 cpm/well with about 80-100 percent cell viability. Longer contact times provide a greater amount of labeling but lower cell viability.
The labeled cells are washed with (i) complete medium, (ii) 1 mM EDTA/PBS and then (iii) RPM1/1 percent BSA free of serum components. The cells are centrifuged after each washing. The cells are finally resuspended in serum-free RPMI/1 percent BSA at a concentration of 1×10^6 viable cells/ml, which provides a concentration that is diluted by one-half in the assay.
Inhibitor peptides are prepared as stock solutions at 20 mg/ml in DMSO in 1.5 ml cryogenic screwcap vials, and were stored at -70° C. Using Flow™ round-bottom or V-bottom microtiter plates, the inhibitor peptides were prepared at twice the assay concentration in RPMI/1 percent BSA at 60 μl well.
Four initial dilutions were typically used.
The ^51 Cr-labeled cells (1×10^6 cells at 60 μl/well) were then admixed with the diluted peptide solutions. The admixtures were maintained at room temperature (about 22° C.) for 30 minutes.
One hundred microliters of each inhibitor peptide/cell admixture were transferred to the substrate-coated wells. This was done in triplicate for each dilution. The resulting plates were incubated for 30 minutes at 37° C. and then washed gently three times with RPMI/1 percent BSA at 200 μl/well. Binding was observed microscopically, particularly after the second wash.
The bound cells were then lysed by the addition of a 0.5 percent solution of sodium dodecylsulfate in water at 100 μ/l well. The resulting solutions were then processed for counting and calculation of IC50 values following usual procedures. Appropriate positive and negative controls were used with each plate so that the results of separate assays could be normalized and compared.
The data of Table 1 are so normalized.

Sequence of VLA-4 (P13612 34-1032): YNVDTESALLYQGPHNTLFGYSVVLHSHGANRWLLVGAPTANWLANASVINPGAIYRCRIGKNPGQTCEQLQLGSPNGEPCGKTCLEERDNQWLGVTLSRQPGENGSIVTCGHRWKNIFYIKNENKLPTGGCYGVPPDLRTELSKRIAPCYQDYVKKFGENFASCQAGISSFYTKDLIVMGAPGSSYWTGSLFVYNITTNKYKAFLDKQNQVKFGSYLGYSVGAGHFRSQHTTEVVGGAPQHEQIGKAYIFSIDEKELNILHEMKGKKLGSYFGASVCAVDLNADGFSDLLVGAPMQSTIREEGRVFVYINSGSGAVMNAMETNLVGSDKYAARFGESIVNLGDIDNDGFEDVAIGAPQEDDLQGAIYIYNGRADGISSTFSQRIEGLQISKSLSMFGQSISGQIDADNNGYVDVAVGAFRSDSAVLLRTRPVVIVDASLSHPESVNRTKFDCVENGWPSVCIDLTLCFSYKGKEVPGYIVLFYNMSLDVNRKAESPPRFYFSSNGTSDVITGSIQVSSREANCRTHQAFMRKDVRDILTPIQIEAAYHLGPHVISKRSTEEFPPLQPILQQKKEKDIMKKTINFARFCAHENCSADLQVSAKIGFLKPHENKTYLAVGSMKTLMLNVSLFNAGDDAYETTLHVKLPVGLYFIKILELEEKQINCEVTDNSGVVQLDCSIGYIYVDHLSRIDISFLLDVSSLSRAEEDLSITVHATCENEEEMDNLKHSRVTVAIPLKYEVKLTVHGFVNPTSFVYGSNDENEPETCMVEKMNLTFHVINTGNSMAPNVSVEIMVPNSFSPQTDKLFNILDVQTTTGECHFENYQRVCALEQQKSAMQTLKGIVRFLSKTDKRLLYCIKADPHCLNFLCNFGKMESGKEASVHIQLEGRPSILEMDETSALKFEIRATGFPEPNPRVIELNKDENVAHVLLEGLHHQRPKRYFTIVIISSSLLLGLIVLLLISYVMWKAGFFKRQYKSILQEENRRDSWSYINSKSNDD
Sequence of VLA-4 (P05556 21-798): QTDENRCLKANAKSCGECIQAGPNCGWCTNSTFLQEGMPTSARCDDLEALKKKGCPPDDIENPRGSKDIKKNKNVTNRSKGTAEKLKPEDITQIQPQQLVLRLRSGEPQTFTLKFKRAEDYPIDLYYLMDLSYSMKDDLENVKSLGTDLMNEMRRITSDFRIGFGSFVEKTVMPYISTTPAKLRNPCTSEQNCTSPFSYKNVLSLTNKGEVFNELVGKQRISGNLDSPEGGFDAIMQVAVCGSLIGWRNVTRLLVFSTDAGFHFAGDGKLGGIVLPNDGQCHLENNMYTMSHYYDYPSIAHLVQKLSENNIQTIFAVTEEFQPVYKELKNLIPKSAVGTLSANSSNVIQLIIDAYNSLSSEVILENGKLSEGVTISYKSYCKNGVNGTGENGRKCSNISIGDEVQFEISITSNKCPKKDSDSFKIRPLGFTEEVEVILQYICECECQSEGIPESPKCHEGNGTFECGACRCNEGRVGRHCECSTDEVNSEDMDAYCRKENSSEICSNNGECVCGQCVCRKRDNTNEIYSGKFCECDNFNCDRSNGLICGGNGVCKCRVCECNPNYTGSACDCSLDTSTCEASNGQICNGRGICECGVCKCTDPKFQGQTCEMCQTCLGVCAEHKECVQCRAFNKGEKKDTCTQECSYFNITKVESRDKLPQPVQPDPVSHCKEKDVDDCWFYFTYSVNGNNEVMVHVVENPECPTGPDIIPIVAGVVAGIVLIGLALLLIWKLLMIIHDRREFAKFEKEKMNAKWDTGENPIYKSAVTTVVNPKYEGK

Row | Molecule | RELATIVE POTENCY (relative peptide inhibition of VLA-4 binding CS-1) | binding inhibition better than the standard 10-mer peptide of SEQ ID NO:3
1 | CC[C@H](C)[C@H](N)C(=O)N[C@@H](CC1CCCCC1)C(=O)N[C@@H](CC(=O)O)C(=O)N[C@@H](Cc1ccccc1)C(=O)N1CCC[C@@H]1C(N)=O (H-I[Cha]DF[dP]-NH2) | 1 | –
2 | CC(=O)N[C@@H](CO)C(=O)N[C@@H](Cc1ccccc1)C(=O)N[C@@H](CC(=O)O)C(=O)N[C@@H](Cc1ccccc1)C(=O)N[C@@H](CO)C(N)=O [S F D F S acetyl amide] (Ac-SFDFS-NH2) | < 1 | –
3 | CC(C)C[C@H](NC(=O)Cc1cccnc1)C(=O)N[C@@H](CC(=O)O)C(=O)N[C@@H](Cc1ccccc1)C(=O)N1CCC[C@@H]1C(N)=O [X L D F p pyridine-3-acetyl amide] ({Acetyl(3-pyridyl)}-LDF[dP]-NH2) | 469 | –
4 | CC[C@H](C)[C@H](N)C(=O)N[C@@H](CC(C)C)C(=O)N[C@@H](CC(=O)O)C(=O)N[C@H](C(=O)N1CCC[C@H]1C(=O)N[C@H](C(=O)N[C@@H](CC(C)C)C(=O)N[C@@H](CC(=O)O)C(=O)N[C@H](C(=O)N1CCC[C@H]1C(N)=O)C(C)C)[C@@H](C)CC)C(C)C [I L D V P I L D V P free amine amide] (H-ILDVPILDVP-NH2) | 2 | –
5 | CC(C)C[C@@H](C(=O)N[C@@H](CC(=O)O)C(=O)N[C@@H](Cc1ccccc1)C(=O)N1CCC[C@@H]1C(N)=O)n1c(=O)[nH]c2ccccc2c1=O | 56 | –
6 | CCC(C)C(N)C(=O)N[C@@H](CC(C)C)C(=O)N[C@@H](CC(=O)O)C(=O)N[C@H](C(=O)N1CCC[C@@H]1C(N)=O)C(C)C (single isomer, unassigned) [I L D V p free amine amide] | 1 | –
7 | CC(C)C[C@H](NC(=O)c1cc[nH]n1)C(=O)N[C@@H](CC(=O)O)C(=O)N[C@@H](Cc1ccccc1)C(=O)N1CCC[C@@H]1C(N)=O [X L D F p pyrazolecarbonyl amide] (X14-LDF[dP]-NH2; N-terminus assumed) | 35 | –
8 | CC(C)C[C@H](N)C(=O)N[C@@H](CC(=O)O)C(=O)N[C@H](C(N)=O)C(C)C [L D V free amine amide, reference compound] (H-Leu-Asp-Val-NH2) | 0 | –
9 | CC(C)C[C@H](NC(=O)Nc1ccccc1)C(=O)N[C@@H](CC(=O)O)C(=O)N[C@@H](Cc1ccccc1)C(=O)N1CCC[C@@H]1C(N)=O [X L D F p anilinocarbonyl amide] ({NHPh-CO}-LDF[dP]-NH2) | 227 | –

The remaining lines, values ahead:

Row | RELATIVE POTENCY (relative peptide inhibition of VLA-4 binding CS-1) | binding inhibition better than the standard 10-mer peptide of SEQ ID NO:3 | Molecule
10 | 1 | – | CC(C)C[C@H](NC(=O)C12CC3CC(CC(C3)C1)C2)C(=O)N[C@@H](CC(=O)O)C(=O)N[C@H](C(=O)N1CCC[C@@H]1C(N)=O)C(C)C [X L D V p adamantanecarbonyl amide]
11 | – | about 120 times | Z X F L D F p: X = ε-amidocaproyl, Z = Europium label (diethylenetriaminepentaacetatoeuropium), C-terminal amide ({code Z-ε‑amidocaproyl}-FLDF[dP]-NH2; also: europium chelate)
12 | 2 | – | CC(C)C[C@H](NC(=O)CC1CCCCC1)C(=O)N[C@@H](CC(=O)O)C(=O)N[C@H](C(=O)N1CCC[C@@H]1C(N)=O)C(C)C [X L D V p cyclohexaneacetyl amide]
13 | 656 | – | CC(C)C[C@H](NC(=O)c1ccncc1)C(=O)N[C@@H](CC(=O)O)C(=O)N[C@@H](Cc1ccccc1)C(=O)N1CCC[C@@H]1C(N)=O [X L D F p pyridine-4-carbonyl amide] (Isonicotinoyl-LDF[dP]-NH2)
14 | 201 | – | CC(C)C[C@H](NC(=O)c1cccnc1)C(=O)N[C@@H](CC(=O)O)C(=O)N[C@@H](Cc1ccccc1)C(=O)N1CCC[C@@H]1C(N)=O [X L D F p pyridine-3-carbonyl amide] (Nicotinoyl-LDF[dP]-NH2)
15 | 140 | – | CC(C)C[C@@H](C(=O)N[C@@H](CC(=O)O)C(=O)N[C@H](C(=O)N1CCC[C@@H]1C(N)=O)C(C)C)N1C(=O)c2ccccc2C1=O [X L D V p phthalimido amide]
16 | 14 | – | CC(C)C[C@H](NC(=O)CCc1ccccc1)C(=O)N[C@@H](CC(=O)O)C(=O)N[C@H](C(=O)N1CCC[C@@H]1C(N)=O)C(C)C [X L D V p phenylpropionyl amide]
17 | 0 | – | CC(C)C[C@H](NC(=O)[C@H](N)Cc1ccccc1)C(=O)N[C@@H](CC(=O)O)C(=O)N[C@H](C(=O)N1CCC[C@@H]1C(=O)O)C(C)C [f L D V p free amine free acid] (H-[dF]LDV[dP]-OH)
18 | 1 | – | CC(C)C[C@H](NC(=O)c1cccc2ccccc12)C(=O)N[C@@H](CC(=O)O)C(=O)N[C@H](C(=O)N1CCC[C@@H]1C(N)=O)C(C)C [X L D V p 1-naphthoyl amide]
19 | 1 | – | CC(C)C[C@H](NC(=O)c1ccc2ccccc2c1)C(=O)N[C@@H](CC(=O)O)C(=O)N[C@H](C(=O)N1CCC[C@@H]1C(N)=O)C(C)C [X L D V p 2-naphthoyl amide]

Same assay, conditions: normalized IC50 relative to standard peptide of SEQ ID NO:3 (=1); about one-tenth or less of the standard is assigned zero

Row | Molecule | RELATIVE POTENCY (relative peptide inhibition of VLA-4 binding CS-1)
20 | Z X F L D F p: X = ε-amidocaproyl, Z = Europium label (diethylenetriaminepentaacetatoeuropium), C-terminal amide ({code Z-ε‑amidocaproyl}-FLDF[dP]-NH2; also: europium chelate) | 118
21 | CC(C)C[C@H](NC(=O)Cc1ccccc1)C(=O)N[C@@H](CC(=O)O)C(=O)N[C@@H](CCc1ccccc1)C(=O)N1CCC[C@@H]1C(N)=O (PhAc-LD[hPhe][dP]-NH2) | 94
22 | CC(C)C[C@H](NC(=O)Cc1ccccc1)C(=O)N[C@@H](CC(=O)O)C(=O)N[C@@H](Cc1ccccc1)C(=O)N1CCNCC1 [X L D F Z phenylacetyl piperazinamide] | 506
23 | CC(C)C[C@H](NC(=O)c1ccccc1)C(=O)N[C@@H](CC(=O)O)C(=O)N[C@H](C(=O)N1CCC[C@H]1C(N)=O)C(C)C [X L D V P benzoyl amide] | 37
24 | CC(C)C[C@H](NC(=O)Cc1ccccc1)C(=O)N[C@@H](CC(=O)O)C(=O)N[C@@H](Cc1ccccc1)C(=O)N1CCCC1CO (stereo partly shown) | 184
25 | CC(C)C[C@H](NC(=O)[C@H](CC(=O)O)NC(=O)Cc1ccccc1)C(=O)N[C@@H](Cc1ccccc1)C(=O)N1CCC[C@@H]1C(N)=O [X D L F p phenylacetyl amide, N-phenylacetyl-Asp-Leu-Phe-D-Pro-NH2, reference compound] (PhAc-DLF[dP]-NH2) | < 1
26 | CC(C)C[C@H](NC(=O)Cc1ccccc1)C(=O)N[C@@H](CC(=O)O)C(=O)N[C@@H]1CCCCNC1=O | 17
27 | CC(C)C[C@H](NC(=O)Cc1ccccc1)C(=O)N[C@@H](CC(=O)O)C(=O)NC1CCCCN(CC(N)=O)C1=O (stereo partly shown) | 97
28 | CC(C)C[C@H](NC(=O)Cc1ccccc1)C(=O)N[C@@H](CC(=O)O)C(=O)N[C@@H](Cc1c[nH]c2ccccc12)C(=O)N1CCC[C@@H]1C(N)=O [X L D W p phenylacetyl amide] (PhAc-LDW[dP]-NH2) | 184
29 | CC(C)C[C@H](NC(=O)Cc1ccccc1)C(=O)N[C@@H](CC(=O)O)C(=O)N[C@@H](Cc1ccccc1)C(=O)N1CCCC1 [X L D F Z phenylacetyl pyrrolidinamide] (PhAc-Leu-Asp-Phe-Pyrrolidide) | 250

Same assay, conditions: normalized IC50 relative to standard peptide of SEQ ID NO:3 (=1); about one-tenth or less of the standard is assigned zero; listed as Leu-Asp-Val (LDV) N-free amine C-amide

Row | RELATIVE POTENCY (relative peptide inhibition of VLA-4 binding CS-1) | Molecule
30 | zero | CC(C)C[C@H](N)C(=O)N[C@@H](CC(=O)O)C(=O)N[C@H](C(N)=O)C(C)C [L D V free amine amide, reference compound] (H-Leu-Asp-Val-NH2)

Same assay, conditions: normalized IC50 relative to standard peptide of SEQ ID NO:3 (=1); about one-tenth or less of the standard is assigned zero; listed as X L D V p benzoyl amide

Row | Molecule | RELATIVE POTENCY (relative peptide inhibition of VLA-4 binding CS-1)
31 | CC(C)C[C@H](NC(=O)c1ccccc1)C(=O)N[C@@H](CC(=O)O)C(=O)N[C@H](C(=O)N1CCC[C@H]1C(N)=O)C(C)C [X L D V P benzoyl amide] | 20
